Source: paper PMC11984924, “Dipeptidic Phosphonates: Potent Inhibitors of Pseudomonas aeruginosa Elastase B Showing Efficacy in a Murine Keratitis Model” (Advanced Science, 2025)
Like-named read-outs stand apart in the source and are kept apart here.

Assays:
[1] = biological target: T1, LasB (Pseudomonas aeruginosa, UniProt Q02RJ6); experiment: In vitro LasB inhibition assay; assay type: biochemical; settings: for fold loss in inhibition: bulkier residues
T1 construct: made in house
Method: (§1) 3.1 In vitro inhibition assays
LasB was expressed and purified as described previously.[3] In vitro inhibition assays (LasB,
MMPs, TACE). All in vitro inhibition assays were performed as described previously.[10] […]
Fluorescence signals were measured using a CLARIOstar plate reader (BMG
Labtech, Ortenberg, Germany). […]

[2] = biological target: T2, MMP-3 (Homo sapiens, UniProt P08254); experiment: MMP-3 inhibition (off-target); assay type: biochemical; settings: read-out: MMP-3 % inhibition at 100 µM
T2 construct: purchased AnaSpec (Fremont, CA, USA)
Method: as §1
(§2) LasB was expressed and purified as described previously.[3] In vitro inhibition assays (LasB, MMPs, TACE). All in vitro inhibition assays were performed as described previously.[10] TACE inhibitor screening kits were purchased from Sigma-Aldrich (Saint Louis, MO). MMPs along with the SensoLyte 520 Generic MMP Activity Kit Fluorimetric were purchased from AnaSpec (Fremont, CA, USA). The assays were performed according to the guidelines of the respective manufacturer. Fluorescence signals were measured using a CLARIOstar plate reader (BMG Labtech, Ortenberg, Germany). […]
(§3) 3.8 Test against zinc metalloproteases MMP1–3 and TACE (ADAM17), and testing of
(§4) We selected a panel of human off -targets, including three human matrix metalloproteases (MMP-1, -2 and -3) and TACE (ADAM-17). These assays were performed as described previously.[3] The TACE inhibitor screening kit was purchased from Sigma -Aldrich (Saint Louis, MO). MMPs along with the SensoLyte 520 Generic MMP Activity Kit Fluorimetric were purchased from AnaSpec (Fremont, CA, USA). The assays were performed according to the guidelines of the respective manufacturer. Fluorescence signals were measured using a CLARIOstar plate reader (BMG Labtech, Ortenberg, Germany). […]
(§5) Table S6: Percent (%) inhibition of three MMPs (1 –3) and TACE (ADAM17) in presence of selected LasB inhibitors at 100 µM. Results are means and SD of at least two independent experiments. […]
(§6) Compound [% inhibition at [% inhibition at [% inhibition at [% inhibition at 100

[3] = tested on: HEK293 cells; experiment: Cytotoxicity HEK293; assay type: cell-based; settings: Homo sapiens, HEK293, read-out: HEK293 % inhibition at 100 µM (metabolic activity), 48 hours
Method: (§7) HepG2 (human hepatocellular carcinoma), HEK293 (human embryonal kidney) and A549
(§8) (human lung carcinoma) cells (2x10^5 cells per well) were seeded in 24-well in flat-bottomed
(§9) plates. Culturing of cells, incubations and OD measurements were performed as described
(§10) previously with small modifications.[14] Twenty-four hours after seeding the cells the incubation
(§11) was started by the addition of compounds in a final DMSO concentration of 1%. The living cell
(§12) mass was determined after 48 hours in a PHERAstar microplate reader (BMG labtech,
(§13) Ortenberg, Germany). Two independent measurements were performed for each compound.

[4] = tested on: Pseudomonas aeruginosa strain PA14; experiment: Antibacterial effect on P. aeruginosa PA14 growth; assay type: cell-based; settings: PA14, read-out: P. aeruginosa PA14 % inhibition of growth at 100 µM, 18 h, 37 °C
Method: Table S14: Food consumption after treatment with (R)-30.
Table S15: Body and organ weights (gram) after treatment with (R)-30.
3.12 Antibacterial effects
As start OD600 of Pseudomonas aeruginosa strain PA14 we used 0.03 in a total volume of 200
µL in lysogeny broth containing the compounds predissolved in DMSO (max. 1%). Final
compound concentrations prepared from serial dilutions ranged from 3.125 to 100 µM (double
values for each concentration). The ODs were determined after addition of the compounds and
again after incubation for 18 h at 37 °C and 200 rpm in 96 well plates (Sarstedt, Nümbrecht,
Germany) using a FLUOStar Omega (BMG labtech, Ortenberg, Germany). Given percent (%)
inhibition values are means of at least two independent determinations. To obtain the values
for a given compound, their ODs were compared to those of DMSO controls. Concerning the […]

[5] = biological target: T3, MMP-2 (Homo sapiens, UniProt P08253); experiment: MMP-2 inhibition (off-target); assay type: biochemical; settings: read-out: MMP-2 % inhibition at 100 µM
T3 construct: purchased AnaSpec (Fremont, CA, USA)
T3 sequence (P08253 110-660): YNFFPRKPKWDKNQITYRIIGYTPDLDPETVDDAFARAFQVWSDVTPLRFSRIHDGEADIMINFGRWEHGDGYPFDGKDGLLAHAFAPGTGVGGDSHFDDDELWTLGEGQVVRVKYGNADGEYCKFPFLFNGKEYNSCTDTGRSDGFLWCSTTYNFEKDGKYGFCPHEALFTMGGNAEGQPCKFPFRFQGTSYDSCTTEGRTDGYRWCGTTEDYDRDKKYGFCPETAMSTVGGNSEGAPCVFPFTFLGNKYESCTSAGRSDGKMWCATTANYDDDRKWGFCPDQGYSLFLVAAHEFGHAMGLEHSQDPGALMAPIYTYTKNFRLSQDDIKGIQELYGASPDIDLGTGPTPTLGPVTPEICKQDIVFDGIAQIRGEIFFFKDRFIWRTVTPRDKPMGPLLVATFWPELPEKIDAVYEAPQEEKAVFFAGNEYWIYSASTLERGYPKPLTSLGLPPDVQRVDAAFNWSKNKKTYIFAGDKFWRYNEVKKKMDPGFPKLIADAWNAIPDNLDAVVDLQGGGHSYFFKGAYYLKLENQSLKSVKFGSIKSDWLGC
Method: 3.1 In vitro inhibition assays […]
as §2, with “MMPs,” for “LasB was expressed and purified as described previously.[3] In vitro inhibition assays (LasB, MMPs,”
as §3, §4, §5, §6

[6] = biological target: T4, MMP-1 (Homo sapiens, UniProt P03956); experiment: MMP-1 inhibition (off-target); assay type: biochemical; settings: read-out: MMP-1 % inhibition at 100 µM
T4 construct: purchased AnaSpec (Fremont, CA, USA)
T4 sequence (P03956 100-469): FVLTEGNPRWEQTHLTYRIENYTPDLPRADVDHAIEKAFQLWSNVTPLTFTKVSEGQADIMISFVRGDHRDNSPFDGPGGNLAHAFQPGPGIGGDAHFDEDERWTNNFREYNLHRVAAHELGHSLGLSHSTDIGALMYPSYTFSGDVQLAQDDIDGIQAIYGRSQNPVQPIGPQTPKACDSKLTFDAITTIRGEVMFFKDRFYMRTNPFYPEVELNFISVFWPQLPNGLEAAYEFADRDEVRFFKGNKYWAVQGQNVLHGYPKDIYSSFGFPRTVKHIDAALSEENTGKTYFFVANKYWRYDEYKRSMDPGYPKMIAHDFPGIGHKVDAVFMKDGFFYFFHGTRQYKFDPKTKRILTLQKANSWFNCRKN
Method: as §1, §2, §3, §4, §5, §6

[7] = tested on: HepG2 cells; experiment: Cytotoxicity HepG2; assay type: cell-based; settings: Homo sapiens, HepG2, read-out: HepG2 % inhibition at 100 µM (metabolic activity), 48 hours
Method: as §7, §8, §9, §10, §11, §12, §13

[8] = biological target: T5, TACE (ADAM17) (Homo sapiens, UniProt P78536); experiment: TACE (ADAM17) inhibition (off-target); assay type: biochemical; settings: read-out: TACE (ADAM17) % inhibition at 100 µM
T5 construct: purchased Sigma-Aldrich (Saint Louis, MO)
Method: as §1, §2, §3, §4, §5, §6

[9] = tested on: A549 cells; experiment: Cytotoxicity A549; assay type: cell-based; settings: Homo sapiens, A549, read-out: A549 % inhibition at 100 µM (metabolic activity), 48 hours
Method: as §7, §8, §9, §10, §11, §12, §13

T1 sequence (Q02RJ6 198-498): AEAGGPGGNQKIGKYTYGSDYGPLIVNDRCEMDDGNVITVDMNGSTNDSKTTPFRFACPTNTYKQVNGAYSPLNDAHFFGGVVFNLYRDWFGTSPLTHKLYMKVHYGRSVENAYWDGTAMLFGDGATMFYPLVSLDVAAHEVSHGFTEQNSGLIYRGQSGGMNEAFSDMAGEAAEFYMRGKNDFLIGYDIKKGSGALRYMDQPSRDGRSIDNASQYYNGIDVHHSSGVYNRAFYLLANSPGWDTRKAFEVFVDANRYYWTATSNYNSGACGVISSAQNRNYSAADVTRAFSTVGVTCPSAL
T5 sequence (P78536 215-824): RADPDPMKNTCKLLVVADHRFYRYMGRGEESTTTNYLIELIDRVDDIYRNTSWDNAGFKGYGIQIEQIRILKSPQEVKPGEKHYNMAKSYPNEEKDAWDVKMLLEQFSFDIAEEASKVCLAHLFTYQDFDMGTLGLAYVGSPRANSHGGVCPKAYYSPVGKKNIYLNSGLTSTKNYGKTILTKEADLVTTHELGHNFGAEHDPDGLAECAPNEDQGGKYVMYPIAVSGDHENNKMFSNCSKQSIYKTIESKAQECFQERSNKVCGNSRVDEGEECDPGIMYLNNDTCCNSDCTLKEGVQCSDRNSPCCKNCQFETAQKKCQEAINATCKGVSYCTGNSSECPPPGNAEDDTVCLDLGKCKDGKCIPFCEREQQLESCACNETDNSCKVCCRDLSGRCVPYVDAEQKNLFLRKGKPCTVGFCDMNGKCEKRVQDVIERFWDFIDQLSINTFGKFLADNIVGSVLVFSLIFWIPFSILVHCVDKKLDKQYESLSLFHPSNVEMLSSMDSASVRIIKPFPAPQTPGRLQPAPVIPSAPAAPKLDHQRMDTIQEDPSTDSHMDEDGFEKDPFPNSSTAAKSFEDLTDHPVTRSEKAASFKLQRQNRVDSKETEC
T2 sequence (P08254 100-477): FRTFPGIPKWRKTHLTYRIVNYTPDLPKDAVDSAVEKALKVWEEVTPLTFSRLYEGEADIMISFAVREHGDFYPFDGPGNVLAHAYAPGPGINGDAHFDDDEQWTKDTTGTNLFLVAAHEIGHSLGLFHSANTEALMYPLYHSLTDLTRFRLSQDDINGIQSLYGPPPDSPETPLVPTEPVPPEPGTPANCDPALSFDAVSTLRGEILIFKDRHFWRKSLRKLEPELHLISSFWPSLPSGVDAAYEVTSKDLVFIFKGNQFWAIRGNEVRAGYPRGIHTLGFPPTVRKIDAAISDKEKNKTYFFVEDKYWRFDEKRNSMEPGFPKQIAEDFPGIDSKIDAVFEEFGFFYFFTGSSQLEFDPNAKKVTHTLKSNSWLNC

Row | Compound | IC50 ([1]; read-out: IC50 LasB inhibition) [nM] | IC50 ([1]; IC50 LasB inhibition) [nM] | also measured
1 | CC(C)CC(C(=O)N[C@@H](CC(C)C)C(=O)Nc1ccc(Cl)c(Cl)c1)P(=O)(O)O (stereo partly shown) [compound 17] | 59.4 ± 1.7 | – | –
2 | CC(C)CC(C(=O)N[C@@H](CC1CCOCC1)C(=O)Nc1ccc(Cl)c(Cl)c1)P(=O)(O)O (stereo partly shown) [compound 20] | 379 ± 8 | – | fold loss in inhibition [1]: over 48 fold
3 | CC(C)C[C@H](C(=O)N[C@@H](Cc1cccnc1)C(=O)Nc1ccc(Cl)c(Cl)c1)P(=O)(O)O [(R)‐25] | 574 ± 16 | – | –
4 | CC(C)CC(C(=O)N[C@H](C(=O)Nc1cccc(Cl)c1)C(C)C)P(=O)(O)O (stereo partly shown) [compound 28] | – | 282 ± 13 | –
5 | CC(C)CC(C(=O)N[C@H](C(=O)Nc1ccc(OC(C)C)cc1)C(C)C)P(=O)(O)O (stereo partly shown) [compound 34] | – | 56.7 ± 2 | –
6 | CC(C)CC(C(=O)N[C@H](C(=O)Nc1ccc(Cl)c(Cl)c1)C1CC1)P(=O)(O)O (stereo partly shown) [compound 12] | – | 28.8 ± 0.8 | –
7 | CC(C)CC(C(=O)N[C@@H](C(=O)Nc1ccc(Cl)c(Cl)c1)C(C)C)P(=O)(O)O (stereo partly shown) [compound 10] | – | 11.3 ± 0.4 | –
8 | CC(C)CC(C(=O)N[C@H](C(=O)Nc1ccc(C(=O)C(F)(F)F)cc1)C(C)C)P(=O)(O)O (stereo partly shown) [compound 31] | – | 21.7 ± 0.6 | inhibition at 100 µM [2]: < 10%; inhibition at 100 µM [3]: 19 ± 5%; inhibition at 100 µM [4]: < 10%; inhibition at 100 µM [5]: < 10%; inhibition at 100 µM [6]: < 10%; inhibition at 100 µM [7]: < 10%; inhibition at 100 µM [8]: < 10%; inhibition at 100 µM [9]: < 10%
9 | CC(=O)c1ccc(NC(=O)[C@@H](NC(=O)[C@H](CC(C)C)P(=O)(O)O)C(C)C)cc1 [(S)‐30] | – | 129 ± 4 | –
10 | CC(C)CC(C(=O)N[C@@H](CC1CC1)C(=O)Nc1ccc(Cl)c(Cl)c1)P(=O)(O)O (stereo partly shown) [compound 16] | 27.1 ± 0.9 | – | –
11 | CC(C)CC(C(=O)N[C@H](C(=O)Nc1ccc(C(F)(F)F)cc1)C(C)C)P(=O)(O)O (stereo partly shown) [compound 29] | – | 15.2 ± 0.3 | –
12 | CC(C)CC(C(=O)N[C@H](C(=O)Nc1ccc(Cl)c(Cl)c1)c1ccccc1)P(=O)(O)O (stereo partly shown) [compound 22] | 99.6 ± 2.5 | – | –
13 | CC(C)CC(C(=O)N[C@@H](CC1CCCCC1)C(=O)Nc1ccc(Cl)c(Cl)c1)P(=O)(O)O (stereo partly shown) [compound 19] | – | – | fold loss in inhibition [1]: over 48 fold
14 | CC(C)CC(C(=O)N[C@H](C(=O)Nc1ccc(N2CCOCC2)cc1)C(C)C)P(=O)(O)O (stereo partly shown) [compound 37] | – | 83.7 ± 2.1 | fold decrease in activity compared to 9 ([1]; compared to 9): 16 fold
15 | COC[C@H](NC(=O)[C@@H](CC(C)C)P(=O)(O)O)C(=O)Nc1ccc(Cl)c(Cl)c1 [(R)‐18] | – | 86.7 ± 3.6 | –
16 | COc1ccc(NC(=O)[C@@H](NC(=O)C(CC(C)C)P(=O)(O)O)C(C)C)cc1 (stereo partly shown) [compound 33] | – | 19.9 ± 0.8 | –
17 | COC[C@H](NC(=O)[C@H](CC(C)C)P(=O)(O)O)C(=O)Nc1ccc(Cl)c(Cl)c1 [(S)‐18] | – | 197 ± 5.4 | –
18 | CC(C)C[C@@H](C(=O)N[C@H](C(=O)Nc1ccc(-n2ccnc2)cc1)C(C)C)P(=O)(O)O [(S)‐36] | – | 417 ± 14 | –
19 | CC(C)CC(C(=O)N[C@H](C(=O)Nc1ccc(Oc2ccccc2)cc1)C(C)C)P(=O)(O)O (stereo partly shown) [compound 35] | – | 8 ± 0.3 | –
20 | CC(C)CC(C(=O)N[C@H](C(=O)Nc1ccc(Cl)cc1)C(C)C)P(=O)(O)O (stereo partly shown) [compound 27] | – | 9 ± 0.4 | –
21 | CC[C@H](C)[C@H](NC(=O)C(CC(C)C)P(=O)(O)O)C(=O)Nc1ccc(Cl)c(Cl)c1 (stereo partly shown) [compound 15] | 13.1 ± 0.5 | – | –
22 | CC(C)CC(C(=O)N[C@@H](Cc1ccccc1)C(=O)Nc1ccc(Cl)c(Cl)c1)P(=O)(O)O (stereo partly shown) [compound 23] | 426 ± 48 | – | –
23 | CC(C)CC(C(=O)N[C@H](CC(=O)Nc1ccc(Cl)c(Cl)c1)C(C)C)P(=O)(O)O (stereo partly shown) [compound 11] | – | 2720 ± 55 | –
24 | CC(C)CC(C(=O)N[C@@H](C)C(=O)Nc1ccc(Cl)c(Cl)c1)P(=O)(O)O (stereo partly shown) [compound 8] | 61.7 ± 1.6 | – | fold increase in activity ([1]; alanine versus glycine dipeptide 7): 28 fold
25 | Cc1ccc(NC(=O)[C@@H](NC(=O)C(CC(C)C)P(=O)(O)O)C(C)C)cc1 (stereo partly shown) [compound 32] | – | 12.9 ± 0.4 | –
26 | CC(C)CC(C(=O)Nc1ccc(C(F)(F)F)cc1)P(=O)(O)O (stereo not shown) [compound 5, reference compound] | – | – | fold enhancement in IC50 compared to the original hit ([1]; compared to thiol-based hit 4): 18 fold
